For twelve compounds, MIC, IC50 and CC50 results are on record in ChEMBL document CHEMBL1138996, “Biological evaluation of isothiazoloquinolones containing aromatic heterocycles at the 7-position: In vitro activity of a series of potent antibacterial agents that are effective against methicillin-resistant Staphylococcus aureus” (Bioorg Med Chem Lett, 2006).

As a reminder, the IC50 is the concentration that inhibits the measured activity by half. A higher IC50 goes with weaker potency. The term CC50 denotes the concentration giving 50% cytotoxicity. A lower CC50 goes with harm at low concentration.

In brackets after ≈: the same amount, converted by molar mass.

One test relates to Escherichia coli. As to the kind of experiment: Antibacterial activity against Escherichia coli ATCC 25922. In kind it is functional.
The subject of test [1] is Staphylococcus aureus. In words: Antibacterial activity against methicillin-resistant Staphylococcus aureus ATCC 700699. It counts as functional.
For test [2], the system named is Staphylococcus aureus. In words: Antibacterial activity against Staphylococcus aureus ATCC 29213. It counts as functional.
The target in test [3] is DNA topoisomerase 4 subunit A (Staphylococcus aureus, UniProt P0C1U9). In words: Inhibitory activity against Staphylococcus aureus ATCC 29213 wild type Topo 4.
For a further test, the system named is HEp-2. As to the kind of experiment: Cytotoxicity against Hep2 cell line. It counts as functional. As to conditions: Homo sapiens.
Another test deals with Enterococcus faecalis. As to the kind of experiment: Antibacterial activity against Enterococcus faecalis ATCC 29212. It counts as functional.
For test [4], the system named is Stenotrophomonas maltophilia. In words: Antibacterial activity against Stenotrophomonas maltophilia ATCC 13637. In kind it is functional.
Another test relates to Streptococcus pyogenes. As to the kind of experiment: Antibacterial activity against Streptococcus pyogenes ATCC 19615. In kind it is functional.
In another test the test system is Klebsiella pneumoniae. In words: Antibacterial activity against Klebsiella pneumoniae ATCC 13883. In kind it is functional.
For the next test, the system named is Salmonella typhimurium. In words: Antibacterial activity against Salmonella Typhimurium ATCC 14028. In kind it is functional, Salmonella enterica subsp. enterica serovar Typhimurium. As to conditions: Salmonella enterica.
A further test deals with Haemophilus influenzae. As to the kind of experiment: Antibacterial activity against Haemophilus influenzae type b ACH-0056. It counts as functional.
Another test concerns Moraxella catarrhalis. As to the kind of experiment: Antibacterial activity against Moraxella catarrhalis ATCC 8176. In kind it is functional.
Another test concerns Enterococcus faecium. As to the kind of experiment: Antibacterial activity against Enterococcus faecium ATCC 49032. In kind it is functional.
The next test has as its system Pseudomonas aeruginosa. As to the kind of experiment: Antibacterial activity against Pseudomonas aeruginosa ATCC 27853. It counts as functional.
Another test concerns Streptococcus pneumoniae. As to the kind of experiment: Antibacterial activity against Streptococcus pneumoniae ATCC 49619. In kind it is functional.

Chain of DNA topoisomerase 4 subunit A (P0C1U9 whole entry): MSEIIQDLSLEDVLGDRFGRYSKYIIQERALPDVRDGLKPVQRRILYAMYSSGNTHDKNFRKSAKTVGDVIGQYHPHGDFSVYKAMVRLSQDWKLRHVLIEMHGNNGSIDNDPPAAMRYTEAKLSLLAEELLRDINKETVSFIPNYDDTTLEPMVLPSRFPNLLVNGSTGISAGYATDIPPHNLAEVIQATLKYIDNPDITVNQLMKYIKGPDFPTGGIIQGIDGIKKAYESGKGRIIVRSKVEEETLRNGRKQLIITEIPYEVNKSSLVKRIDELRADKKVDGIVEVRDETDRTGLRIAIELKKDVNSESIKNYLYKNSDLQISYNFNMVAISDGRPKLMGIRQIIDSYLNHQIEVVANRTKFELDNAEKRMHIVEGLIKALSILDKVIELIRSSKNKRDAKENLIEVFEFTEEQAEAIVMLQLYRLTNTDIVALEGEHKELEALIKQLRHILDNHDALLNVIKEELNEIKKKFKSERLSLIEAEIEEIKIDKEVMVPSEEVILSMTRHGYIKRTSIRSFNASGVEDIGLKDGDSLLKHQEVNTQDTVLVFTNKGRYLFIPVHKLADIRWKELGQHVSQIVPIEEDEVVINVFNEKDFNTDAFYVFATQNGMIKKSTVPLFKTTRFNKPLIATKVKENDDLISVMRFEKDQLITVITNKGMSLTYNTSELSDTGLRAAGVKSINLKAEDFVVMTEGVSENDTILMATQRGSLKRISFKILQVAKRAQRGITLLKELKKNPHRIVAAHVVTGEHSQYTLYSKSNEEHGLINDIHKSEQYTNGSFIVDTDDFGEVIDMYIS

On to `O=c1[nH]sc2c1c(=O)c1cc(F)c(-c3cnccn3)cc1n2C1CC1`, for which the results for the MIC in the test with Escherichia coli, against Staphylococcus aureus [1] and against Staphylococcus aureus [2] were 1 µg/mL (≈ 2.82 µM), over 64 µg/mL and 0.12 µg/mL (≈ 0.339 µM), respectively. This compound had an IC50 in test [3] of 64 µM. The compound further had a CC50 with HEp-2 of over 91 µM.

Turning to `Cc1cc(-c2cc3c(cc2F)c(=O)c2c(=O)[nH]sc2n3C2CC2)ccn1`, the MIC was 0.125 µg/mL (≈ 0.34 µM) against Enterococcus faecalis; 1 µg/mL (≈ 2.72 µM) in [4]; 0.059 µg/mL (≈ 0.161 µM) with Escherichia coli; 0.04 µg/mL (≈ 0.109 µM) with Streptococcus pyogenes; 0.125 µg/mL (≈ 0.34 µM) against Klebsiella pneumoniae; 0.125 µg/mL (≈ 0.34 µM) against Salmonella typhimurium. Besides, the MIC in the test on Haemophilus influenzae stood at 0.015 µg/mL (≈ 0.0408 µM); in the test on Staphylococcus aureus [1] it was 0.5 µg/mL (≈ 1.36 µM); against Moraxella catarrhalis, 0.0037 µg/mL (≈ 0.0101 µM); in the test on Enterococcus faecium, 0.25 µg/mL (≈ 0.68 µM); against Pseudomonas aeruginosa, 2 µg/mL (≈ 5.44 µM); in the test with Streptococcus pneumoniae, 0.029 µg/mL (≈ 0.0789 µM). The MIC against Staphylococcus aureus [2] is 0.004 µg/mL (≈ 0.0109 µM). Moreover, half-maximal inhibition in test [3] (IC50) was put at 26 µM. Also, the CC50 with HEp-2 was determined as 36 µM.

On to `O=c1[nH]sc2c1c(=O)c1cc(F)c(-c3cncc(C4CCCN4)c3)cc1n2C1CC1` (stereo not given), for which the MIC with Escherichia coli came to 0.12 µg/mL (≈ 0.284 µM); against Staphylococcus aureus [1], 8 µg/mL (≈ 18.9 µM); against Staphylococcus aureus [2], 0.06 µg/mL (≈ 0.142 µM). The compound further registered an IC50 in [3] of 1.1 µM. In the test with HEp-2, this compound came in with a CC50 of 25 µM.

In the case of `O=c1[nH]sc2c1c(=O)c1cc(F)c(-c3cccnc3)cc1n2C1CC1`, the MIC against Escherichia coli was determined as 0.0035 µg/mL (≈ 0.0099 µM); against Staphylococcus aureus [1] it was 2 µg/mL (≈ 5.66 µM); against Staphylococcus aureus [2] it was 0.0071 µg/mL (≈ 0.0201 µM). Also, the IC50 in test [3] stood at 0.5 µM. In the test on HEp-2, this compound came in with a CC50 of over 100 µM.

For `COc1ccncc1-c1cc2c(cc1F)c(=O)c1c(=O)[nH]sc1n2C1CC1`, the MIC in the test on Escherichia coli is 0.25 µg/mL (≈ 0.652 µM); against Staphylococcus aureus [1], 4 µg/mL (≈ 10.4 µM); in the test with Staphylococcus aureus [2], 0.023 µg/mL (≈ 0.06 µM). In test [3], this compound yielded an IC50 of 10 µM. The CC50 in the test with HEp-2 is 50 µM.

`O=c1[nH]sc2c1c(=O)c1cc(F)c(-c3ccc(F)nc3)cc1n2C1CC1`: the MIC in the test on Enterococcus faecalis was 0.125 µg/mL (≈ 0.337 µM); in test [4], 1 µg/mL (≈ 2.69 µM); in the test with Escherichia coli it was 0.03 µg/mL (≈ 0.0808 µM); in the test with Streptococcus pyogenes it was 0.059 µg/mL (≈ 0.159 µM); against Klebsiella pneumoniae, 0.125 µg/mL (≈ 0.337 µM); against Salmonella typhimurium, 0.125 µg/mL (≈ 0.337 µM). Further, the MIC was 0.03 µg/mL (≈ 0.0808 µM) in the test with Haemophilus influenzae; 2 µg/mL (≈ 5.39 µM) in the test with Staphylococcus aureus [1]; 0.0037 µg/mL (≈ 0.00996 µM) against Moraxella catarrhalis; 0.11 µg/mL (≈ 0.296 µM) against Enterococcus faecium; 0.5 µg/mL (≈ 1.35 µM) against Pseudomonas aeruginosa; 0.125 µg/mL (≈ 0.337 µM) against Streptococcus pneumoniae. This compound returned an MIC against Staphylococcus aureus [2] of 0.015 µg/mL (≈ 0.0404 µM). For the same compound, in test [3], half-maximal inhibition (IC50) was put at 12 µM. Moreover, in the test with HEp-2, the CC50 was over 100 µM.

For the compound `Cc1ccc(-c2cc3c(cc2F)c(=O)c2c(=O)[nH]sc2n3C2CC2)c(C)n1`, the figures for the MIC with Escherichia coli, against Staphylococcus aureus [1] and against Staphylococcus aureus [2] were 0.5 µg/mL (≈ 1.31 µM), over 64 µg/mL and 0.13 µg/mL (≈ 0.341 µM), respectively. Also, 8 µM corresponded to half-maximal inhibition in test [3] (IC50). Also, the CC50 with HEp-2 is over 100 µM.

Turning to `O=c1[nH]sc2c1c(=O)c1cc(F)c(-c3ccc(-n4cccc4)nc3)cc1n2C1CC1`, the MIC amounted to 1 µg/mL (≈ 2.39 µM) with Escherichia coli, 4 µg/mL (≈ 9.56 µM) with Staphylococcus aureus [1] and 0.029 µg/mL (≈ 0.0693 µM) with Staphylococcus aureus [2]. In test [3], this compound registered an IC50 of 18 µM. Besides, the CC50 with HEp-2 is over 100 µM.

On to `O=c1[nH]sc2c1c(=O)c1cc(F)c(-c3ccnc(CO)c3)cc1n2C1CC1`, for which the MIC was determined as 0.14 µg/mL (≈ 0.365 µM) in the test on Escherichia coli, 32 µg/mL (≈ 83.5 µM) with Staphylococcus aureus [1] and 0.034 µg/mL (≈ 0.0887 µM) against Staphylococcus aureus [2]. This compound also showed an IC50 in test [3] of 4.8 µM. In the test with HEp-2, the CC50 was over 100 µM.

For `NCc1ccc(-c2cc3c(cc2F)c(=O)c2c(=O)[nH]sc2n3C2CC2)cn1`, the MIC stood at 0.059 µg/mL (≈ 0.154 µM) in the test on Escherichia coli, 32 µg/mL (≈ 83.7 µM) against Staphylococcus aureus [1] and 0.13 µg/mL (≈ 0.34 µM) in the test with Staphylococcus aureus [2]. Also, the IC50 in [3] was 0.7 µM. Further, the CC50 in the test on HEp-2 is over 100 µM.

`COc1cncc(-c2cc3c(cc2F)c(=O)c2c(=O)[nH]sc2n3C2CC2)c1`: the MIC with Escherichia coli turned out to be 0.061 µg/mL (≈ 0.159 µM); against Staphylococcus aureus [1], 4 µg/mL (≈ 10.4 µM); in the test with Staphylococcus aureus [2], 0.03 µg/mL (≈ 0.0782 µM). In test [3], this compound showed an IC50 of 21 µM. The same compound registered a CC50 in the test with HEp-2 of 34 µM.

`COc1ccc(-c2cc3c(cc2F)c(=O)c2c(=O)[nH]sc2n3C2CC2)c(OC)n1`: the MIC in the test on Escherichia coli is 2 µg/mL (≈ 4.84 µM); with Staphylococcus aureus [1] it was 8 µg/mL (≈ 19.4 µM); against Staphylococcus aureus [2], 0.046 µg/mL (≈ 0.111 µM). Moreover, the IC50 in test [3] is 16 µM. This compound displayed a CC50 with HEp-2 of 98 µM.
